Among the data in ChEMBL document CHEMBL3352074, “Novel ROCK inhibitors for the treatment of pulmonary arterial hypertension” (Bioorg Med Chem Lett, 2014) are AUC(0-t), Papp A→B and concentration values, retold here.

The nature of data set [1]: AUC (0 to 6 hrs) in mouse plasma at 1 mg/kg, it. The note with it: inhaled or intranasal. Also noted: time < 6 hr, dose 1 mg/kg, route endotracheal. The data set is classed as ADME, organism-based.
Data set [2] in a line: AUC (0 to 6 hrs) in mouse lung at 1 mg/kg, it. The data set is classed as ADME, organism-based. Also noted: time < 6 hr, dose 1 mg/kg, route endotracheal. The note with it: inhaled or intranasal.
Data set [3] in a line: Apparent permeability from apical to basolateral side across human Caco2 cells. The data set is classed as ADME, cell-based. Particulars: Caco-2. On the technique in general: Passage across Caco-2 layers is used to estimate intestinal permeability.
The nature of data set [4]: AUC (0 to 6 hrs) in mouse plasma at 1 mg/kg, iv. In kind it is ADME, organism-based. Also noted: time < 6 hr, dose 1 mg/kg, route intravenous.
Data set [5] in a line: AUC (0 to 6 hrs) in mouse lung at 1 mg/kg, iv. The data set is classed as ADME, organism-based. Also noted: time < 6 hr, dose 1 mg/kg, route intravenous.
Data set [6] can be described thus: Drug concentration in Balb/C mouse lung at 1 mg/kg, it after 3 hrs. Also noted: dose 1 mg/kg, route endotracheal. Particulars: inhaled or intranasal, read-out: Drug uptake. In kind it is ADME, organism-based.
Data set [7] in a line: Drug concentration in Balb/C mouse lung at 1 mg/kg, iv after 0.5 hrs. The data set is classed as ADME, organism-based. Also noted: dose 1 mg/kg, route intravenous. The note with it: read-out: Drug uptake.
Data set [8] can be described thus: Plasma concentration in Balb/C mouse at 1 mg/kg, it after 0.5 hrs. The data set is classed as ADME, organism-based. Also noted: dose 1 mg/kg, route endotracheal. Particulars: inhaled or intranasal.
Data set [9] can be described thus: Plasma concentration in Balb/C mouse at 1 mg/kg, iv after 0.5 hrs. Also noted: dose 1 mg/kg, route intravenous. The data set is classed as ADME, organism-based.
Data set [10] can be described thus: Drug concentration in Balb/C mouse lung at 1 mg/kg, it after 0.5 hrs. The note with it: inhaled or intranasal, read-out: Drug uptake. In kind it is ADME, organism-based. Also noted: dose 1 mg/kg, route endotracheal.
The nature of data set [11]: Drug concentration in Balb/C mouse lung at 1 mg/kg, iv after 3 hrs. The data set is classed as ADME, organism-based. Also noted: dose 1 mg/kg, route intravenous. Particulars: read-out: Drug uptake.
Data set [12] is described as follows: Plasma concentration in Balb/C mouse at 1 mg/kg, it after 3 hrs. Particulars: inhaled or intranasal. The data set is classed as ADME, organism-based. Also noted: dose 1 mg/kg, route endotracheal.
Data set [13] can be described thus: Plasma concentration in Balb/C mouse at 1 mg/kg, iv after 3 hrs. Also noted: dose 1 mg/kg, route intravenous. The data set is classed as ADME, organism-based.

For `c1ccc2c(N3CCNCC3)nc(-c3ccc4[nH]ncc4c3)nc2c1`, the AUC(0-t) at 6 h was 0.665 µM·h in data set [1], 9.31 µM·h in [2], 0.642 µM·h in data set [4] and 5.92 µM·h in [5]. Besides, the apical-to-basolateral permeability (Papp A→B) in [3] is 5.65 ×10⁻⁶ cm/s.

Turning to `c1cc2c(N3CCNCC3)nc(-c3ccc4[nH]ncc4c3)nc2cn1`, the AUC(0-t) at 6 h is 0.302 µM·h in data set [1], 16 µM·h in data set [2], 0.372 µM·h in data set [4] and 3.01 µM·h in [5]. The concentration at 3 h was 1900 nM in data set [6], 200 nM in data set [11], 20 nM in [12] and 10 nM in data set [13]. Moreover, the concentration at 0.5 h came to 2000 nM in [7], 500 nM in [8], 400 nM in [9] and 32500 nM in [10].

Broadly, the AUC(0-t) is exposure summed from dosing to a finite time, without extrapolation to infinity. Read a low AUC(0-t) as less exposure. Broadly, the Papp A→B is the apparent permeability from the apical to the basolateral side of a cell layer.
